According to EP4692071A1, “PHOTOCHROMIC COMPOUND, NAPHTHOL DERIVATIVE, CURABLE COMPOSITION, OPTICAL ARTICLE, LENS, AND EYEGLASS” (TOKUYAMA CORPORATION, priority 2023, dated 2024):

Assays:
Type in all cases: physicochemical
[1] = Maximum absorption wavelength (λmax) after color development, spectrophotometer MCPD3000
Description: (§1) • [1] Maximum Absorption Wavelength (λmax): The maximum absorption wavelength after color development, measured using a spectrophotometer (instantaneous multichannel photodetector MCPD3000) manufactured by Otsuka Electronics Co., Ltd. was used as an indicator for the color tone during the color development. • [2] 23°C Color Optical Density (A23): A difference between an absorbancy measured after light irradiation at 23°C for 240 seconds {ε(240)} and an absorbancy without light irradiation ε(0) at the maximum absorption wavelength was used as an indicator for the color optical density. […] 35°C Color Optical Density (A35): A difference between an absorbancy measured after light irradiation at 35°C for 240 seconds {ε(240)} and an absorbancy without light irradiation ε(0) at the first and second absorption wavelengths was used as an indicator for the color optical density. […] 23°C color fading half-life [τ1/2 (sec.)]: A time required for the absorbancy of the sample at the maximum absorption wavelength to decrease to 1/2 of {ε(240)-ε(0)} when the light irradiation is terminated after the light irradiation at 23°C for 240 seconds, was used as an indicator for the color fading speed. The shorter this time, the higher the color fading speed. • [6] Residual rate (A90/A0×100): The obtained photochromic plastic lens was subjected to accelerated deterioration using a xenon weather meter X25 manufactured by Suga Test Instruments Co., Ltd. for 90 hours. Subsequently, the color optical density was evaluated before and after the test, then a color optical density before the test (A0) and a color optical density after the test (A90) were measured, and a ratio (A90/A0) was defined as a residual rate. The residual rate was used as an indicator for a color developing durability. The higher the residual rate, the higher the color developing durability.

[2] = High-temperature color development rate (A35/A23×100), temperature dependency
Description: as §1

[3] = 23°C color optical density (A23): absorbancy difference ε(240)-ε(0) after 240 s light irradiation at 23°C; conditions: 240 s irradiation
Description: as §1

[4] = Residual rate (A90/A0×100) after 90 h accelerated deterioration in xenon weather meter X25, color developing durability; conditions: xenon weather meter 90 hours
Description: as §1

[5] = 35°C color optical density (A35): absorbancy difference ε(240)-ε(0) after 240 s light irradiation at 35°C; conditions: 240 s irradiation
Description: as §1

[6] = binder sheet (binder method), urethaneurea resin photochromic layer between polycarbonate sheets, 0.25 mmol per 100 parts by mass resin
[7] = photochromic cured product by kneading method, 1 mm thick thiourethane, 0.106 mmol per 100 g monomers
[8] = photochromic laminate by coating method, 40 µm photochromic layer on thiourethane lens, 0.25 mmol compound per 100 g monomers
[9] = cured product by kneading method, 1 mm
[10] = photochromic laminate by coating method
[11] = photochromic laminate by coating method, at the maximum absorption wavelength
[12] = binder sheet (binder method), measured at 451 nm absorption maximum
[13] = binder sheet (binder method), measured at 565 nm absorption maximum
[14] = photochromic laminate by coating method, at 451 nm absorption maximum
[15] = photochromic laminate by coating method, at 566 nm absorption maximum

Structure (SMILES) | Maximum absorption wavelength (nm) [1, 6] [nm] | Maximum absorption wavelength (nm) [1, 7] [nm] | Maximum absorption wavelength (nm) [1, 8] [nm] | A35/A23 *100 (%) ([2]; binder sheet (binder method)) | A35/A23 *100 (%) [2, 9] [%] | A35/A23 *100 (%) [2, 10] [%] | A23 (-) ([3]; binder sheet (binder method)) | A23 (-) [3, 9] | A23 (-) [3, 11] | Residual rate (%) ([4]; binder sheet (binder method)) | Residual rate (%) [4, 9] [%] | Residual rate (%) [4, 10] [%] | A35 (-) ([5]; binder sheet (binder method)) | A35 (-) [5, 9] | A35 (-) [5, 10] | further results
COc1ccc(C2(c3ccc(OC)cc3)C=Cc3c4c(c5cc(N(C)c6ccccc6)c(OC)cc5c3O2)-c2ccccc2C4(C)C)cc1 [Example 1 Formula (28)] | 501 | 505 | 501 | 69 | 70 | 69 | 1.17 - | 1.19 - | 1.15 - | 95 | 89 | 83 | 0.80 - | 0.83 - | 0.79 - | –
COc1ccc(C2(c3ccc(OC)cc3)C=Cc3c4c(c5cc(N(c6ccccc6)c6ccccc6)c(OC)cc5c3O2)-c2ccccc2C4(C)C)cc1 [Example 2 Formula (30)] | 510 | 514 | 510 | 70 | 71 | 70 | 1.52 - | 1.51 - | 1.49 - | 94 | 88 | 82 | 1.07 - | 1.07 - | 1.05 - | –
COc1ccc(C2(c3ccc(OC)cc3)C=Cc3c4c(c5cc(N(C)c6ccc(F)cc6)c(OC)cc5c3O2)-c2ccccc2C4(C)C)cc1 [Example 4 Formula (34)] | 496 | 500 | 496 | 66 | 67 | 66 | 1.20 - | 1.20 - | 1.18 - | 93 | 84 | 80 | 0.79 - | 0.81 - | 0.78 - | –
CCCOc1ccc(C2(c3ccc(OCCC)cc3)C=Cc3c4c(c5cc(N(CCOC)c6ccccc6)c(OC)cc5c3O2)-c2ccccc2C42CCCCCCC2)cc1 [Example 6 Formula (47)] | 499 | – | 499 | 71 | – | 71 | 1.37 - | – | 1.34 - | 94 | – | 80 | 0.97 - | – | 0.95 - | –
COc1ccc(C2(c3ccc(N4CCOCC4)cc3)C=Cc3c4c(c5cc(N6CCCc7ccccc76)c(OC)cc5c3O2)-c2ccc(C)cc2C4(CCCC(F)(F)F)CCCC(F)(F)F)cc1 (stereo not drawn) [Example 8 Formula (54)] | – | 549 | 545 | – | 66 | 64 | – | 1.20 - | 1.18 - | – | 80 | 75 | – | 0.79 - | 0.75 - | –
CCCC1(CCC)c2ccccc2-c2c1c1c(c3cc(OC)c(N4CCOc5ccccc54)cc23)OC(c2ccc(OC)cc2)(c2ccc(OC)cc2)C=C1 [Example 10 Formula (59)] | 510 | 514 | 510 | 66 | 68 | 66 | 1.32 - | 1.34 - | 1.3 - | 94 | 89 | 82 | 0.87 - | 0.91 - | 0.86 - | –
CCCC1(CCC)c2ccccc2-c2c1c1c(c3cc(OC)c(N(c4ccccc4)c4ccc(C)cc4)cc23)OC(c2ccc(OC)cc2)(c2ccc(OC)cc2)C=C1 [Example 13 Formula (68)] | 512 | – | 512 | 68 | – | 69 | 1.6 | – | 1.57 - | 96 | – | 83 | 1.09 - | – | 1.08 - | –

Now from value to compound, other results behind:

Maximum absorption wavelength (nm) [1, 6] [nm] | Maximum absorption wavelength (nm) [1, 7] [nm] | Maximum absorption wavelength (nm) [1, 8] [nm] | A35/A23 *100 (%) ([2]; binder sheet (binder method)) | A35/A23 *100 (%) [2, 9] [%] | A35/A23 *100 (%) [2, 10] [%] | A23 (-) ([3]; binder sheet (binder method)) | A23 (-) [3, 9] | A23 (-) [3, 11] | Residual rate (%) ([4]; binder sheet (binder method)) | Residual rate (%) [4, 9] [%] | Residual rate (%) [4, 10] [%] | A35 (-) ([5]; binder sheet (binder method)) | A35 (-) [5, 9] | A35 (-) [5, 10] | Structure (SMILES) | further results
498 | 502 | 498 | 68 | 69 | 68 | 1.11 - | 1.12 - | 1.0897 - | 97 | 90 | 84 | 0.76 - | 0.77 - | 0.74 - | CCCC1(CCC)c2ccccc2-c2c1c1c(c3cc(OC)c(N(C)c4ccccc4)cc23)OC(c2ccc(OC)cc2)(c2ccc(OC)cc2)C=C1 [Example 3 Formula (32)] | –
– | – | – | – | – | 64 | – | – | – | – | – | – | – | – | – | CCC1(CC)CCC2(CC1)c1ccccc1-c1c2c2c(c3cc(OC)c(N(C)c4ccc(C(F)(F)F)cc4)cc13)OC(c1ccc(C)cc1)(c1ccc(OC)cc1)C=C2 (stereo not drawn) [Example 9 Formula (57)] | Maximum absorption wavelength (nm) ([1]; binder sheet (binder method), urethaneurea resin photochromic layer between polycarbonate sheets, 0.25 mmol per 100 parts by mass resin, measured at 451 nm absorption maximum): 451 nm; Maximum absorption wavelength (nm) ([1]; binder sheet (binder method), urethaneurea resin photochromic layer between polycarbonate sheets, 0.25 mmol per 100 parts by mass resin, measured at 565 nm absorption maximum): 565 nm; Maximum absorption wavelength (nm) ([1]; photochromic laminate by coating method, 40 µm photochromic layer on thiourethane lens, 0.25 mmol compound per 100 g monomers, at 451 nm absorption maximum): 451 nm; Maximum absorption wavelength (nm) ([1]; photochromic laminate by coating method, 40 µm photochromic layer on thiourethane lens, 0.25 mmol compound per 100 g monomers, at 566 nm absorption maximum): 566 nm; A35/A23 *100 (%) [2, 12]: 66%; A35/A23 *100 (%) [2, 13]: 65%; A23 (-) [3, 12]: 0.75 -; A23 (-) [3, 13]: 0.88 -; A23 (-) ([3]; photochromic laminate by coating method, at the maximum absorption wavelength, at 451 nm absorption maximum): 0.73 -; A23 (-) ([3]; photochromic laminate by coating method, at the maximum absorption wavelength, at 566 nm absorption maximum): 0.86 -; Residual rate (%) [4, 12]: 95%; Residual rate (%) [4, 13]: 96%; Residual rate (%) [4, 14]: 83%; Residual rate (%) [4, 15]: 84%; A35 (-) [5, 12]: 0.49 -; A35 (-) [5, 13]: 0.56 -; A35 (-) [5, 14]: 0.47 -; A35 (-) [5, 15]: 0.55 -
501 | – | 501 | 67 | – | 67 | 1.40 - | – | 1.38 - | 94 | – | 81 | 0.93 - | – | 0.92 - | CCCCC1(CCCC)c2ccccc2-c2c1c1c(c3cc(OC)c(N(c4ccc(F)cc4)c4ccc(F)cc4)cc23)OC(c2ccc(OC)cc2)(c2ccc(OC)cc2)C=C1 [Example 12 Formula (66)] | –
521 | – | 521 | 70 | – | 70 | 1.93 | – | 1.89 - | 94 | – | 82 | 1.36 - | – | 1.33 - | CCCOc1ccc(C2(c3ccc(OCCC)cc3)C=Cc3c4c(c5cc(N(c6ccc(C)cc6)c6ccc(C)cc6)c(OC)cc5c3O2)-c2ccccc2C4(CCCCOCOC)CCCCOCOC)cc1 [Example 14 Formula (71)] | –
